Reference: US10131652B2, “Pyrimidinyloxy benzene derivatives as herbicides” (E. I. DU PONT DE NEMOURS AND COMPANY, priority 2014, dated 2018)

Legend:
Test in all cases: Test D pre-/postemergence plant response
Type in all cases: in vivo
[1] = test system: Italian ryegrass (Lolium multiflorum)
Method in brief: (§1)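 0 = no effect, 100 = complete control: plants were scored this way by visual comparison with controls 13 to 15 days post-treatment. Application was preemergence to sown loam/sand pots or postemergence to 2–18 cm seedlings in peat-based mix.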

[2] = test system: barnyardgrass (Echinochloa crus-galli)
Method in brief: as §1

[3] = test system: blackgrass (Alopecurus myosuroides)
Method in brief: as §1

corn (Zea mays) = test system: corn (Zea mays)
Method in brief: as §1

[4] = test system: galium (catchweed bedstraw, Galium aparine)
Method in brief: as §1

[5] = test system: giant foxtail (Setaria faberii)
Method in brief: as §1

[6] = test system: johnsongrass (Sorghum halepense)
Method in brief: as §1

[7] = test system: lambsquarters (Chenopodium album)
Method in brief: as §1

[8] = test system: large (Lg) crabgrass (Digitaria sanguinalis)
Method in brief: as §1

[9] = test system: morningglory (Ipomoea coccinea)
Method in brief: as §1

[10] = test system: oilseed rape (Brassica napus)
Method in brief: as §1

[11] = test system: pigweed (Amaranthus retroflexus)
Method in brief: as §1

[12] = test system: ragweed (common ragweed, Ambrosia elatior)
Method in brief: as §1

soybean (Glycine max) = test system: soybean (Glycine max)
Method in brief: as §1

[13] = test system: velvetleaf (Abutilon theophrasti)
Method in brief: as §1

[14] = test system: waterhemp (common waterhemp, Amaranthus rudis)
Method in brief: as §1

[15] = test system: winter wheat (Triticum aestivum)
Method in brief: as §1

[16] = test system: yellow nutsedge (Cyperus esculentus)
Method in brief: as §1

[17] = Postemergence, 31 g ai/ha, scale 0 to 100 (0 no effect, 100 complete control)
[18] = Postemergence, 62 g ai/ha, scale 0 to 100, 0 no effect, 100 complete control
[19] = Postemergence, 125 g ai/ha, scale 0 to 100, 0 no effect, 100 complete control
[20] = Preemergence, 16 g ai/ha, scale 0 to 100 (0 no effect, 100 complete control)
[21] = Preemergence, 31 g ai/ha, scale 0 to 100 (0 no effect, 100 complete control)
[22] = Preemergence, 62 g ai/ha, scale 0 to 100 (0 no effect, 100 complete control)

Clc1cnc(Oc2ccccc2-c2cc(C3CC3)on2)nc1 [Compound 183]
Plant response rating (scale 0 to 100), Ryegrass, Italian ([1]; Postemergence, 16 g ai/ha): 0
Ryegrass, Italian plant response rating [1, 17]: 0
Ryegrass, Italian plant response rating [1, 18]: 5
Plant response rating, Ryegrass, Italian [1, 19]: 10
Plant response rating (scale 0 to 100), Ryegrass, Italian ([1]; Preemergence, 125 g ai/ha): 50
Plant response rating, Ryegrass, Italian [1, 20]: 0
Plant response rating, Ryegrass, Italian [1, 21]: 0
Plant response rating, Ryegrass, Italian [1, 22]: 15
Plant response rating (scale 0 to 100), Barnyardgrass ([2]; Postemergence, 16 g ai/ha): 5
Barnyardgrass plant response rating [2, 17]: 5
Plant response rating, Barnyardgrass [2, 18]: 5
Plant response rating, Barnyardgrass [2, 19]: 5
Plant response rating (scale 0 to 100), Barnyardgrass ([2]; Preemergence, 125 g ai/ha): 90
Plant response rating, Barnyardgrass [2, 20]: 5
Plant response rating, Barnyardgrass [2, 21]: 5
Plant response rating, Barnyardgrass [2, 22]: 30
Plant response rating (scale 0 to 100), Blackgrass ([3]; Postemergence, 16 g ai/ha): 0
Blackgrass plant response rating [3, 17]: 5
Plant response rating, Blackgrass [3, 18]: 5
Plant response rating, Blackgrass [3, 19]: 20
Plant response rating (scale 0 to 100), Blackgrass ([3]; Preemergence, 125 g ai/ha): 50
Plant response rating, Blackgrass [3, 20]: 0
Plant response rating, Blackgrass [3, 21]: 0
Plant response rating, Blackgrass [3, 22]: 0
Plant response rating (scale 0 to 100), Corn (corn (Zea mays); Postemergence, 16 g ai/ha): 10
Corn plant response rating (corn (Zea mays); [17]): 15
Plant response rating, Corn (corn (Zea mays); [18]): 15
Plant response rating, Corn (corn (Zea mays); [19]): 20
Plant response rating (scale 0 to 100), Corn (corn (Zea mays); Preemergence, 125 g ai/ha): 5
Plant response rating, Corn (corn (Zea mays); [20]): 0
Plant response rating, Corn (corn (Zea mays); [21]): 0
Plant response rating, Corn (corn (Zea mays); [22]): 0
Plant response rating (scale 0 to 100), Galium ([4]; Postemergence, 16 g ai/ha): 65
Galium plant response rating [4, 17]: 65
Plant response rating, Galium [4, 18]: 95
Plant response rating, Galium [4, 19]: 95
Plant response rating (scale 0 to 100), Galium ([4]; Preemergence, 125 g ai/ha): 95
Plant response rating, Galium [4, 20]: 50
Plant response rating, Galium [4, 21]: 50
Plant response rating, Galium [4, 22]: 95
Plant response rating (scale 0 to 100), Foxtail, Giant ([5]; Postemergence, 16 g ai/ha): 5
Foxtail, Giant plant response rating [5, 17]: 5
Plant response rating, Foxtail, Giant [5, 18]: 5
Plant response rating, Foxtail, Giant [5, 19]: 5
Plant response rating (scale 0 to 100), Foxtail, Giant ([5]; Preemergence, 125 g ai/ha): 100
Plant response rating, Foxtail, Giant [5, 20]: 5
Plant response rating, Foxtail, Giant [5, 21]: 35
Plant response rating, Foxtail, Giant [5, 22]: 80
Plant response rating (scale 0 to 100), Johnsongrass ([6]; Postemergence, 16 g ai/ha): 0
Johnsongrass plant response rating [6, 17]: 5
Plant response rating, Johnsongrass [6, 18]: 5
Plant response rating, Johnsongrass [6, 19]: 10
Plant response rating (scale 0 to 100), Johnsongrass ([6]; Preemergence, 125 g ai/ha): 45
Plant response rating, Johnsongrass [6, 20]: 0
Plant response rating, Johnsongrass [6, 21]: 5
Plant response rating, Johnsongrass [6, 22]: 20
Plant response rating (scale 0 to 100), Lambsquarters ([7]; Postemergence, 16 g ai/ha): 35
Lambsquarters plant response rating [7, 17]: 65
Lambsquarters plant response rating [7, 18]: 65
Plant response rating, Lambsquarters [7, 19]: 75
Plant response rating (scale 0 to 100), Lambsquarters ([7]; Preemergence, 125 g ai/ha): 100
Plant response rating, Lambsquarters [7, 20]: 80
Plant response rating, Lambsquarters [7, 21]: 85
Plant response rating, Lambsquarters [7, 22]: 90
Plant response rating (scale 0 to 100), Crabgrass, Large ([8]; Postemergence, 16 g ai/ha): 5
Crabgrass, Large plant response rating [8, 17]: 5
Plant response rating, Crabgrass, Large [8, 18]: 5
Plant response rating, Crabgrass, Large [8, 19]: 10
Plant response rating (scale 0 to 100), Crabgrass, Large ([8]; Preemergence, 125 g ai/ha): 100
Plant response rating, Crabgrass, Large [8, 20]: 5
Plant response rating, Crabgrass, Large [8, 21]: 70
Plant response rating, Crabgrass, Large [8, 22]: 98
Plant response rating (scale 0 to 100), Morningglory ([9]; Postemergence, 16 g ai/ha): 65
Morningglory plant response rating [9, 17]: 75
Morningglory plant response rating [9, 18]: 90
Plant response rating, Morningglory [9, 19]: 90
Plant response rating (scale 0 to 100), Morningglory ([9]; Preemergence, 125 g ai/ha): 40
Plant response rating, Morningglory [9, 20]: 0
Plant response rating, Morningglory [9, 21]: 0
Plant response rating, Morningglory [9, 22]: 5
Plant response rating (scale 0 to 100), Oilseed Rape ([10]; Postemergence, 16 g ai/ha): 5
Oilseed Rape plant response rating [10, 17]: 85
Oilseed Rape plant response rating [10, 18]: 100
Plant response rating, Oilseed Rape [10, 19]: 100
Plant response rating (scale 0 to 100), Oilseed Rape ([10]; Preemergence, 125 g ai/ha): 100
Plant response rating, Oilseed Rape [10, 20]: 50
Plant response rating, Oilseed Rape [10, 21]: 100
Plant response rating, Oilseed Rape [10, 22]: 100
Plant response rating (scale 0 to 100), Pigweed ([11]; Postemergence, 16 g ai/ha): 55
Pigweed plant response rating [11, 17]: 85
Pigweed plant response rating [11, 18]: 85
Plant response rating, Pigweed [11, 19]: 95
Plant response rating (scale 0 to 100), Pigweed ([11]; Preemergence, 125 g ai/ha): 100
Plant response rating, Pigweed [11, 20]: 50
Plant response rating, Pigweed [11, 21]: 60
Plant response rating, Pigweed [11, 22]: 100
Plant response rating (scale 0 to 100), Ragweed ([12]; Postemergence, 16 g ai/ha): 15
Ragweed plant response rating [12, 17]: 35
Ragweed plant response rating [12, 18]: 60
Plant response rating, Ragweed [12, 19]: 65
Plant response rating (scale 0 to 100), Ragweed ([12]; Preemergence, 125 g ai/ha): 10
Plant response rating, Ragweed [12, 20]: 0
Plant response rating, Ragweed [12, 21]: 0
Plant response rating, Ragweed [12, 22]: 0
Plant response rating (scale 0 to 100), Soybean (soybean (Glycine max); Postemergence, 16 g ai/ha): 65
Soybean plant response rating (soybean (Glycine max); [17]): 55
Soybean plant response rating (soybean (Glycine max); [18]): 75
Plant response rating, Soybean (soybean (Glycine max); [19]): 90
Plant response rating (scale 0 to 100), Soybean (soybean (Glycine max); Preemergence, 125 g ai/ha): 80
Plant response rating, Soybean (soybean (Glycine max); [20]): 0
Plant response rating, Soybean (soybean (Glycine max); [21]): 10
Plant response rating, Soybean (soybean (Glycine max); [22]): 35
Plant response rating (scale 0 to 100), Velvetleaf ([13]; Postemergence, 16 g ai/ha): 30
Velvetleaf plant response rating [13, 17]: 55
Velvetleaf plant response rating [13, 18]: 55
Plant response rating, Velvetleaf [13, 19]: 55
Plant response rating (scale 0 to 100), Velvetleaf ([13]; Preemergence, 125 g ai/ha): 100
Plant response rating, Velvetleaf [13, 20]: 40
Plant response rating, Velvetleaf [13, 21]: 80
Plant response rating, Velvetleaf [13, 22]: 90
Plant response rating (scale 0 to 100), Waterhemp ([14]; Postemergence, 16 g ai/ha): 80
Waterhemp plant response rating [14, 17]: 80
Waterhemp plant response rating [14, 18]: 75
Plant response rating, Waterhemp [14, 19]: 98
Plant response rating (scale 0 to 100), Waterhemp ([14]; Preemergence, 125 g ai/ha): 100
Plant response rating, Waterhemp [14, 20]: 10
Plant response rating, Waterhemp [14, 21]: 100
Plant response rating, Waterhemp [14, 22]: 95
Plant response rating (scale 0 to 100), Wheat ([15]; Postemergence, 16 g ai/ha): 5
Wheat plant response rating [15, 17]: 20
Wheat plant response rating [15, 18]: 30
Plant response rating, Wheat [15, 19]: 30
Plant response rating (scale 0 to 100), Wheat ([15]; Preemergence, 125 g ai/ha): 0
Plant response rating, Wheat [15, 20]: 0
Plant response rating, Wheat [15, 21]: 0
Plant response rating, Wheat [15, 22]: 0
Plant response rating (scale 0 to 100), Nutsedge, Yellow ([16]; Postemergence, 16 g ai/ha): 5
Nutsedge, Yellow plant response rating [16, 17]: 5
Nutsedge, Yellow plant response rating [16, 18]: 5
Plant response rating, Nutsedge, Yellow [16, 19]: 5
Plant response rating (scale 0 to 100), Nutsedge, Yellow ([16]; Preemergence, 125 g ai/ha): 5
Plant response rating, Nutsedge, Yellow [16, 20]: 0
Plant response rating, Nutsedge, Yellow [16, 21]: 0
Plant response rating, Nutsedge, Yellow [16, 22]: 0
